What all share (assay type): functional
In assay [1] the target is Leukotriene B4 receptor 1 (Homo sapiens) (UniProt Q15722). As to the kind of experiment: Antagonistic activity against Leukotriene B4 receptor by using [3H]LTB4 as a radioligand at a concentration of 10e-6 M.
The target is the same in assay [2]. Briefly: Antagonistic activity against Leukotriene B4 receptor by using [3H]LTB4 as a radioligand at a concentration of 10e-5 M.
The target is the same in assay [3]. As to the kind of experiment: Antagonistic activity against Leukotriene B4 receptor by using [3H]LTB4 as a radioligand at a concentration of 10e-7 M.

Leukotriene B4 receptor 1 (Homo sapiens), sequence (Q15722 whole entry): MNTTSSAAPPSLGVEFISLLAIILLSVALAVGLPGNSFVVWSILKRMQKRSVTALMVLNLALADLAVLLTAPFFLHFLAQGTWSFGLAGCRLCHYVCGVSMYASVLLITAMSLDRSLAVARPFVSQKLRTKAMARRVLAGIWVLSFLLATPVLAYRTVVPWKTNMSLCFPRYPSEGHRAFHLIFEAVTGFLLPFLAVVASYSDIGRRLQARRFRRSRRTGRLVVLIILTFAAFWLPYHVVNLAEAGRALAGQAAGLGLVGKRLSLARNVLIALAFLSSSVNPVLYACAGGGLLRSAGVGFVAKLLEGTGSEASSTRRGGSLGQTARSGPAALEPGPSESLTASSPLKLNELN

For `CCCCCCCCCCOc1ccc(C(=O)c2cccc(-c3nnn[nH]3)c2)cc1Cc1nnn[nH]1`, the inhibition amounted to 20% in assay [1] and 81% in assay [2].

As for `CCCCCCCCCCOc1ccc(C(=O)c2cccc(Cc3nnn[nH]3)c2)cc1CCC(=O)O`, the inhibition in assay [1] amounted to 68%; in assay [2] it was 99%.

With `CCCCCCCCCCOc1ccc(C(=O)c2cccc(S(=O)(=O)NC)c2)cc1CCC(=O)O`, the inhibition came to 9% in assay [1] and 22% in assay [2].

For the compound `O=C(O)CCc1cc([S+]([O-])c2cccc(C(=O)O)c2)ccc1OCCCCCCc1ccccc1` (stereo unspecified), the inhibition in assay [3] turned out to be 37%; in assay [1] it was 71%; in assay [2], 79%.

Take `CCCCCCCCCCOc1ccc(C(=O)c2cccc(C(=O)OCC)c2)cc1Cc1nnn[nH]1`: the results for the inhibition in assay [1] and in assay [2] were 14% and 0%, respectively.

Take `CCCCCCCCCCOc1ccc(C(=O)c2cccc(C(=O)O)c2)c(O)c1`: the figures for the inhibition in assay [1] and in assay [2] were 13% and 19%, respectively.

On to `CCCCCCCCCCOc1ccc(C(=O)c2cccc([N+](=O)[O-])c2)cc1CCC(=O)O`, for which the values for the inhibition in assay [1] and in assay [2] were 0% and 13%, respectively.

In the case of `CCCCCCCCCCOc1ccc(C(O)c2cccc(C(=O)O)c2)cc1CC(=O)O` (stereo unspecified), the inhibition was 28% in assay [1] and 75% in assay [2].

`CCCCCCCCCCOc1ccc(C(=O)c2cccc(C(=O)O)c2)cc1Cc1nnn[nH]1`: the inhibition in assay [1] was found to be 34%; in assay [2], 83%.

For the compound `CCCCCCCCCCOc1ccc(C(=O)c2ccc(C(=O)O)cc2)cc1CC(=O)O`, the inhibition in assay [1] stood at 35%; in assay [2], 76%.

As for `CCCCCCCCCCOc1ccc(C(=O)c2cccc(-c3nn[nH]n3)c2)cc1CCC(=O)O`, the figures for the inhibition in assay [1] and in assay [2] were 71% and 98%, respectively.

For `CCCCCCCCCCOc1ccc(C(=O)c2cccc(C#N)c2)cc1CC#N`, the inhibition in assay [1] was 0%; in assay [2] it was 3%.

As for `O=C(O)CCc1cc(/C(=N\O)c2cccc(C(=O)O)c2)ccc1OCCCCCCc1ccccc1`, the inhibition in assay [3] was determined as 30%; in assay [1] it was 84%; in assay [2], 96%.

`O=C(O)CCc1cccc(NC(=O)c2cccc(C(=O)O)c2)c1OCCCCCCc1ccccc1`: the results for the inhibition in assay [1] and in assay [2] were 0% and 24%, respectively.

For the compound `CCCCCCCCCCOc1ccc(C(=O)c2ccccc2C(=O)O)cc1CC(=O)O`, the inhibition in assay [1] was found to be 7%; in assay [2], 60%.

Take `CCCCCCCCCCOc1ccc(C(O)c2cccc(C(=O)O)c2)cc1CCC(=O)O` (stereo unspecified): the inhibition turned out to be 55% in assay [1] and 91% in assay [2].

With `O=C(O)CCc1cc(S(=O)(=O)c2cccc(C(=O)O)c2)ccc1OCCCCCCc1ccccc1`, the inhibition in assay [3] stood at 24%; in assay [1], 79%; in assay [2] it was 100%.

In the case of `CCCCCCCCCCOc1ccc(C(=O)c2cccc(C(=O)O)c2)cc1CCC(=O)O`, the figures for the inhibition in assay [1] and in assay [2] were 60% and 95%, respectively.

As for `CCCCCCCCCCOc1ccc(C(=O)c2ccccc2CC(=O)O)cc1CCC(=O)O`, the inhibition in assay [1] was 79%; in assay [2], 100%.

As to `CCCCCCCCCCOc1ccc(C(=O)c2cccc(-c3nn[nH]n3)c2)cc1CC(=O)O`, the inhibition was found to be 28% in assay [1] and 93% in assay [2].

`CCCCCCCCCCOc1ccc(C(=O)c2cccc(C(=O)NC)c2)cc1CCC(=O)NC`: the inhibition in assay [1] and in assay [2] was 0% each time.

As for `CCCCCCCCCCOc1ccc(Cc2cccc(C(=O)O)c2)cc1CCC(=O)O`, the inhibition in assay [1] is 41%; in assay [2], 88%.

With `CCCCCCCCCCOc1ccc(C(=O)c2cccc(C(=O)O)c2)cc1CCc1nnn[nH]1`, the inhibition was determined as 55% in assay [1] and 96% in assay [2].

`CCCCCCCCCCOc1ccc(C(=O)c2cccc(C(=O)O)c2)c(CC(=O)O)c1`: the values for the inhibition in assay [1] and in assay [2] were 23% and 74%, respectively.

Turning to `CCCCCCCCCCOc1ccc(C(=O)c2ccccc2)cc1CC(=O)O`, the results for the inhibition in assay [1] and in assay [2] were 1% and 24%, respectively.

As to `CCCCCCCCCCOc1ccc(C(=O)c2cccc(-c3nn[nH]n3)c2)cc1CCC(=O)OCC`, the inhibition was 1% in assay [1] and 0% in assay [2].

Regarding `CCCCCCCCCCOc1ccc(/C(=N\O)c2cccc(C(=O)O)c2)cc1CCC(=O)O`, the inhibition in assay [1] was determined as 61%; in assay [2], 92%.

For `CCCCCCCCCCOc1ccc(C(=O)Cc2ccccc2C(=O)O)cc1CCC(=O)O`, the inhibition in assay [1] was found to be 53%; in assay [2], 95%.

For `CCCCCCCCCCOc1ccc(C(=O)c2cccc(C(=O)O)c2)cc1C(=O)O`, the figures for the inhibition in assay [1] and in assay [2] were 21% and 76%, respectively.

With `CCCCCCCCCCOc1ccc(C(O)c2ccc(C(=O)O)cc2)cc1CC(=O)O` (stereo unspecified), the inhibition came to 15% in assay [1] and 59% in assay [2].

`CCCCCCCCCCOc1ccc(C(O)c2cccc(C(=O)O)c2)cc1` (stereo unspecified): the figures for the inhibition in assay [1] and in assay [2] were 3% and 0%, respectively.

As for `O=C(O)CCc1cc(NC(=O)c2cccc(C(=O)O)c2)ccc1OCCCCCCc1ccccc1`, the inhibition in assay [1] was determined as 73%; in assay [2] it was 98%.

In the case of `CCCCCCCCCCOc1ccc(C(OCC)c2cccc(C(=O)O)c2)cc1CCC(=O)O` (stereo unspecified), the inhibition in assay [1] is 26%; in assay [2] it was 78%.

Turning to `CCCCCCCCCCOc1ccc(C(=O)c2cccc(C(=O)OCC)c2)cc1CC(=O)OCC`, the inhibition in assay [1] and in assay [2] was 0% throughout.

Turning to `C=C(c1cccc(C(=O)O)c1)c1ccc(OCCCCCCCCCC)c(CCC(=O)O)c1`, the inhibition was found to be 39% in assay [1] and 71% in assay [2].

Take `CCCCCCCCCCOc1ccc(C(=O)CCCC(=O)O)cc1CC(=O)O`: the inhibition came to 2% in assay [1] and 39% in assay [2].

Consider `CCCCCCCCCCOc1ccc(C(=O)c2cccc(C(=O)O)c2)cc1CCCC(=O)O`, for which the inhibition in assay [1] turned out to be 52%; in assay [2], 89%.

In the case of `O=C(O)CCc1cc(C(=O)c2cccc(C(=O)O)c2)ccc1OCCCCCCc1ccccc1`, the inhibition in assay [1] came out at 85%; in assay [2], 100%.

In the case of `CCCCCCCCCCOc1ccc(C(=O)c2cccc(C(=O)O)c2)cc1CC(=O)O`, the inhibition amounted to 27% in assay [1] and 73% in assay [2].

For the compound `CCCCCCCCCCOc1ccc(Oc2cccc(C(=O)O)c2)cc1CCC(=O)O`, the inhibition in assay [1] stood at 41%; in assay [2] it was 88%.

With `O=C(O)CCc1cc(Sc2cccc(C(=O)O)c2)ccc1OCCCCCCc1ccccc1`, the inhibition is 29% in assay [3], 67% in assay [1] and 102% in assay [2].

As usually defined, the inhibition is the change of the read-out against control, counted positive when it falls.

Values taken from ChEMBL document CHEMBL1124983, “Benzophenone dicarboxylic acid antagonists of leukotriene B4. 1. Structure-activity relationships of the benzophenone nucleus” (J Med Chem, 1990).
